The source of these data is US20230190717A1, “P38 GAMMA INHIBITORS AND METHOD OF USE THEREOF” (City of Hope, priority 2017, published 2023).

Molecules are shown by their SMILES.

One assay has as its target T1, p38β (Homo sapiens, UniProt Q15759).
T1 construct: human recombinant p38 α, β, γ or δ protein (active full-length); purchased SignalChem; host or cells: baculovirus in Sf9 insect cells
As to the kind of experiment: ADP-Glo in vitro kinase assay, p38β. The format is biochemical. On the procedure:
Kinase assay in vitro: Kinase enzyme assays in vitro were performed using ADP-Glo kit (Promega, Wis.). The luminescent ADP-Glo kinase assay measures ADP produced from ATP consumption in a kinase enzyme reaction. All compounds have been tested and shown no inhibition to luciferase activities. Briefly, in this experiment, human recombinant p38 α, β, γ or δ protein (active full-length) expressed by baculovirus in sf9 insect cells (SignalChem, Vancouver, Canada) was homogenized in wells of white opaque 96-well microplates with the kinase buffer that consisted of 40 mM Tris-HCl (pH 7.5), 20 mM MgCl2, 0.1 mg/mL BSA and 50 μM DTT. […] Next, synthetic peptide substrates ([…]) were added to the mixture at final concentration of 0.2 μg/μL, followed by adding ATP at various concentrations. The 50 μL mixture was reacted at room temperature for 60 min. […]
In vitro kinase assay (ADP-GLO): We identified p38γ inhibitors using in vitro kinase assay by screening a library of kinase inhibitors: The library consists of 244 compounds on three plates (EMD Cat #539744, #539745, and #539746) that are mostly ATP mimics. […] IC50 values were determined using […] software (Biosoft, Cambridge, United Kingdom).

Another assay deals with p38γ. As to the kind of experiment: p38γ mRNA level and protein expression (Western blot). The format is cell-based. To be noted: 4 hr. The text has this:
qRT-PCR (real-time quantitative reverse transcription PCR): Total RNA was generated using TRIZOL reagent (Life Technologies, Carlsbad, Calif.) followed by double DNase treatment and column purification using Qiagen RNeasy Clean-up (Qiagen, Germantown, Md.). The Invitrogen […] III First-Strand Synthesis System was used for cDNA synthesis and TaqMan 5700 Sequence Detection System (Applied Biosystems, Foster City, Calif.) were used for qRT-PCR. All PCR reactions were run in triplicate. The amplified transcripts were quantified using the comparative CT method as described. cDNA and primers for MAPK11, 12, 13, and 14 and GAPDH (Table 9) were added to SYBR GREEN PCR Master Mix (SYBR Green I Dye, […]® DNA polymerase, dNTPs with dUTP and optimal buffer components; Applied Biosystems) and subjected to PCR amplification (1 cycle at 95° C. for 3 min; 35 cycles at 95° C. for 15 s and 55° C. for 30 s; 1 cycle at 50° C. for 2 min).
A general note: A western blot detects proteins with antibodies after separation by electrophoresis.

In assay [1] the test system is normal CD4+ T cells from healthy donors. Briefly: Cell viability, healthy CD4+ T cells. The format is cell-based, human. The settings on record: 100 nM. On the procedure:
Compound, Samples, and Cell Culture: […] Isolation of PBMCs or CD4^+T cells from both patients and healthy donors and culture of CTCL cell lines (Hut78, HH, and H9) were performed as previously described.

Assay [2] deals with phosphorylation of DLGH1 at Ser158. Briefly: Western blot of pDLGH1-Ser158 in CTCL cells. To be noted: SS cells, Hut78 and H9 cells; 50-100 nM. The format is cell-based, human.
Protocol: Western blot: Western blots were performed as described previously [5]. Rabbit primary antibodies (Cell Signaling Technology (CST), Danvers, Mass.) were used at the following dilutions: anti-p38α, -p38β, -p38γ, and -p38δ (1:1000), anti-B-tubulin (1:2000), anti-p38 GAPDH 1:1000. […] For detection of p38γ protein level in SS patient samples we used a monoclonal antibody that close to N-terminus of human p38γ MAPK (SAPK3) from Abcam ((ab205926).
A further assay deals with H3K27 acetylation. Briefly: Immunofluorescence confocal microscopy of H3K27 acetylation. The format is cell-based, human. The settings on record: 800 nM, 10 hr. On the procedure:
Immunofluorescence Confocal microscopy: Hut 78 Cells were cytospun unto the slides and fixed with 3.8% paraformaldehyde for 30 min at room temperature (RT) and then permeabilized with 0.25% Triton X-100 in PBS, for 10 min at RT. The cells were washed twice with PBS and blocked in 3% BSA in PBS for 1 h at RT. […] Coverslips were permanently mounted with DAPI (life Technologies) for nuclear staining. Observations were carried out using a confocal laser scanning microscope (zeiss LSM 700). Primary antibodies were used at the following dilutions: anti-ß-tubulin (1:200), H3K27 ac (CST, dilution 1:500), p-p38 (CST, dilution 1:500), DLGH1 (abcam) 1:1000.

T1 sequence (Q15759 whole entry): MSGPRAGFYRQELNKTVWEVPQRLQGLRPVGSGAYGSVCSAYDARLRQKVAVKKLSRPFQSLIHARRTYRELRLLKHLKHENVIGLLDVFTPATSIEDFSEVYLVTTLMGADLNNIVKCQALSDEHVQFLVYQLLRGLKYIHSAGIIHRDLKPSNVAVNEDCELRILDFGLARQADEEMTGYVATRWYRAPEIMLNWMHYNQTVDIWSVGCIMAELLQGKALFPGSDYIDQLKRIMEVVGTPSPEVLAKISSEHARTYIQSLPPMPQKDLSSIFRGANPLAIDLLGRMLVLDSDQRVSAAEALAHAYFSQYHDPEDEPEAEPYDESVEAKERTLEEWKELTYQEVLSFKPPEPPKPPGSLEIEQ

In the case of `Cc1ccc([N+](=O)[O-])cc1S(=O)(=O)N(C)/N=C/c1cnc2ccc(Br)cn12` [Compound 1], on p38β, the “dose-dependent inhibition of kinase activity” value is “not”. In addition, in the assay on p38γ, the “mRNA level of p38 gamma” value is recorded as “reduces the mRNA level”. For the same compound, in assay [1], the cell viability result is reported as “spared”. The “phosphorylation of DLGH1 at Ser158” value in assay [2] is “inhibited phosphorylation of DLGH1 at Ser158”. Also, the H3K27 acetylation entry in the assay on H3K27 acetylation is “blocked H3K27 acetylation”.
